Where a name gives a salt, the structure may show the parent alone.
Assays:
[1] = tested on: imiquimod (IMQ) mouse model of psoriasis; test: Imiquimod (IMQ) mouse model of psoriasis; type: in vivo; conditions: oral dose of 90 mg-eq MMF/kg BID for 10 days in male Balb/C mice
Method: Imidquimod model of skin inflammation (Fits et al The Journal of Immunology, 2009, 182: 5836-5845). 10-12 week old BALB/c, I117c+/+ or I117c−/−, or I117re+/+ or I117re−/− mice were administered 50 mg Aldara cream (5% Imidquimod in Graceway, 3M) in the shaved back and right ear daily for 5 days. Clinical scoring and ear thickness measurements were performed daily. Scoring was based upon the manifestation of psoriatic symptoms, such as erythema, scaling and thickness: 0, No disease. 1, Very mild erythema with very mild thickening and scaling involving a small area. 2, Mild erythema with mild thickening and scaling involving a small area. 3, Moderate erythema with moderate thickening and scaling (irregular and patchy) involving a small area (<25%). 4, Severe erythema with marked thickening and scaling (irregular and patchy) involving a moderate area (25-50%). 5, Severe erythema with marked thickening and scaling (irregular and patchy) involving a large area (>50%). Ear and back tissue were harvested on day 5 for histological evaluation.
Efficacy of compounds of the disclosure and DMF is compared in the imiquimod (IMQ) mouse model of psoriasis. Balb/c mice (10 males/group) received daily topical IMQ (5% cream) on shaved back and right ear for 5 days as described above. Animals received oral dose of a representative compound of the disclosure or DMF (45 or 90 mg-eq MMF/kg twice daily) or vehicle from Day −5 to Day 5. Erythema score is the primary outcome measure.
The Erythema score values of the compounds tested at an oral dose of 90 mg-eq MMF/kg BID for 10 days in male Balb/C mice are set forth in Table 3, below.

[2] = tested on: stomach lesions in the rat; test: Annamalai-Ma gastrointestinal irritation rat model; type: in vivo; conditions: rats, oral 180 mg-equivalents MMF/kg once per day for 4 days; score 0 (normal mucosa) to 5 (severe ulceration), Table 4
Description: At least one MMF prodrug, e.g., dimethyl fumarate, is known to cause gastrointestinal irritation. The Annamalai-Ma gastrointestinal irritation rat model is predictive of gastrointestinal irritation of MMF prodrugs in humans. This animal model has several common features of other published GI irritation animal models including the Whiteley-Dalrymple model described in Models of Inflammation: Measuring Gastrointestinal Ulceration in the Rat, Pharmacology (1998) 10.2.1-10.2.4; as well as the animal models disclosed in Joseph J. Bertone, DVM, MS, DipACVIM. Prevalence of Gastric Ulcers in Elite, Heavy Use Western Performance Horses, AAEP Proceedings/Vol. 46/2000; and İsbíl Büyükcoskun N., Central Effects of Glucagon-like Peptide-1 on Cold Restraint Stress-induced Gastric Mucosal Lesions, Physiol. Res. 48: 451-455, 1999.
In order to assess gastrointestinal irritation using this model, rats are treated orally with either vehicle or the MMF prodrug of the present disclosure (n=10 per group) at 180 mg-equivalents MMF/kg of animal body weight, dosed once per day for 4 days, followed by necropsy and gastrointestinal evaluation at 24 hrs after the final dose. Evans Blue dye is injected IV (tail vein) to visually emphasize any lesions in the gastrointestinal tissue.
Accordingly, rats are dosed once per day for 4 consecutive days with 180 mg-equivalents MMF/kg body weight per day. The animals are fasted overnight prior to necropsy. On Day 5, to help visualize lesions, 1 mL of 1% Evan's blue in saline is injected into the tail vein 30 minutes prior to euthanasia. The animals are euthanized by inhalation of carbon dioxide. A partial necropsy, limited to the abdominal cavities, is then performed. The stomach and small intestine are removed. Residual material is washed away, using an irrigation syringe filled with saline. The stomach is cut along the larger curvature and washed gently with normal saline, and is examined for any lesions. The stomachs are scored in accordance with the scoring system outlined in Table 4.

[3] = cited from earlier work

SMILES	Erythema Score (% Relative to IMQ) [1]	Stomach Irritation Score [2]	melting point [°C]	Aqueous solubility [3]
COC(=O)/C=C/C(=O)OCCN1CCOCC1 [Compound 2, Methyl(2-morpholinoethyl)fumarate HCl salt]	69 % Relative to IMQ	0		
COC(=O)/C=C/C(=O)OCCCN1CCOCC1 [Compound 4, Methyl(3-morpholinopropyl)fumarate HCl salt]	73.3 % Relative to IMQ	0		
COC(=O)/C=C/C(=O)OCCCCCN1CCOCC1 (as salt: HCl) [Compound 8, Methyl(5-morpholinopentyl)fumarate HCl salt]			150	
COC(=O)/C=C/C(=O)OCCCN1CCOCC1 (as salt: HCl) [Compound 4, Methyl(3-morpholinopropyl)fumarate HCl salt]			185.2	
COC(=O)/C=C/C(=O)OC [DMF, dimethyl fumarate, reference compound]	74.1 % Relative to IMQ	4.6		poor
COC(=O)/C=C/C(=O)OCCCCCN1CCOCC1 [Compound 8, Methyl(5-morpholinopentyl)fumarate HCl salt]	59.3 % Relative to IMQ	0		
COC(=O)/C=C/C(=O)OCCCCN1CCOCC1 [Compound 6, Methyl(4-morpholinobutyl)fumarate HCl salt]	57.1 % Relative to IMQ	0.6		
COC(=O)/C=C/C(=O)OCCCCCCN1CCOCC1 (as salt: HCl) [Compound 10, Methyl(6-morpholinohexyl)fumarate HCl salt]			104.1	
COC(=O)/C=C/C(=O)OCCCCCCN1CCOCC1 [Compound 10, Methyl(6-morpholinohexyl)fumarate HCl salt]	66.7 % Relative to IMQ	0		
COC(=O)/C=C/C(=O)OCCCCN1CCOCC1 (as salt: HCl) [Compound 6, Methyl(4-morpholinobutyl)fumarate HCl salt]			145.5	
COC(=O)/C=C/C(=O)OCC(=O)N1CCOCC1 [CC-1, reference compound]		2.9		
